Among the test systems are NCI-H23; 786-0; Hs-578T; MOLT-4; PC-3; SNB-19; HOP-92; HL-60; NCI-H522; SR; LOX IMVI; RPMI-8226; DU-145; HCT-15; EKVX; MDA-MB-231; SK-MEL-28; OVCAR-8; NCI-H460; Malme-3M.
Common to all, as to test: DTP human tumour cell line panel, 48 h

Each structure is given as a SMILES string.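 Tested at 5 concentrations; 48 h exposure; 96-well plates; endpoints linearly interpolated, else capped at highest concentration. GI50 = concentration required for 50% inhibition of growth.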 The source made the active and inactive calls. Rule as the data show it: active = GI50 up to about 1.1 µM and inactive = higher. A value given as a limit tells only on which side of the number the result lay.

For orientation: GI50 means the concentration at which growth is held to half of that of the control. Regarding `CC[C@@H](/C=C\CCC(=O)C[C@H](O)CCC=C(C)C)O[Si](C(C)C)(C(C)C)C(C)C`, the GI50 is > 100 µM (inactive) in the experiment with NCI-H23; > 100 µM (inactive) with 786-0; > 100 µM (inactive) in the experiment with Hs-578T; > 100 µM (inactive) in the experiment with MOLT-4; 75.5 µM (inactive) with PC-3; > 100 µM (inactive) with SNB-19. In addition, the GI50 in the experiment on HOP-92 is 81.7 µM (inactive); with HL-60 it was 46 µM (inactive); in the experiment with NCI-H522 it was 48.6 µM (inactive); in the experiment on SR, 39.4 µM (inactive); in the experiment with LOX IMVI, 90.8 µM (inactive); in the experiment with RPMI-8226, 57.3 µM (inactive). Also, the GI50 was > 100 µM (inactive) in the experiment on DU-145; over 100 µM in the experiment on HCT-15; > 100 µM (inactive) in the experiment with EKVX; > 100 µM (inactive) with MDA-MB-231; > 100 µM (inactive) in the experiment with SK-MEL-28; > 100 µM (inactive) in the experiment with OVCAR-8. Besides, the GI50 in the experiment on NCI-H460 was > 100 µM (inactive).

As to `CCCCCCN1CCc2c(C)c(C#N)c3nc4ccccc4n3c21`, the GI50 with NCI-H23 is 45 µM (inactive); in the experiment on 786-0, 42.9 µM (inactive); with Hs-578T it was 8.73 µM (inactive); in the experiment on PC-3 it was 7.82 µM (inactive); with SNB-19, 80.4 µM (inactive); with Malme-3M, 83.2 µM (inactive). For the same molecule, the GI50 was 22.5 µM (inactive) in the experiment on HOP-92; 11.7 µM (inactive) in the experiment with HL-60; 31.4 µM (inactive) in the experiment on NCI-H522; > 100 µM (inactive) in the experiment with SR; 22.2 µM (inactive) with LOX IMVI; > 100 µM (inactive) with DU-145. Also, the GI50 in the experiment with HCT-15 was 27.6 µM; with MDA-MB-231, 5.73 µM (inactive); in the experiment with SK-MEL-28, 33.7 µM (inactive); in the experiment with OVCAR-8, 29.2 µM (inactive); in the experiment on NCI-H460, 16 µM (inactive).

As to `CN(C(=O)Cc1cc(Cl)c(Cl)cc1NC(=O)CN)[C@H]1CCCC[C@@H]1N1CCCC1`, the GI50 with NCI-H23 is > 100 µM (inactive); in the experiment with 786-0 it was 16.3 µM (inactive); in the experiment on Hs-578T, 23.1 µM (inactive); in the experiment with MOLT-4, > 100 µM (inactive); in the experiment on PC-3 it was 37.1 µM (inactive); in the experiment on SNB-19 it was 45.8 µM (inactive). Moreover, the GI50 in the experiment on Malme-3M was 20.8 µM (inactive); in the experiment with HOP-92, > 100 µM (inactive); with HL-60, 19.1 µM (inactive); with SR it was 29 µM (inactive); in the experiment with LOX IMVI, 18.3 µM (inactive); in the experiment on RPMI-8226, 30.8 µM (inactive). Besides, the GI50 in the experiment with DU-145 is > 100 µM (inactive); with HCT-15 it was 37 µM; with EKVX, > 100 µM (inactive); in the experiment on MDA-MB-231 it was 23.3 µM (inactive); with OVCAR-8 it was 88.3 µM (inactive); in the experiment on NCI-H460, 29.6 µM (inactive).

In the case of `BrCc1ccc2ccc3ccc(CBr)nc3c2n1`, the GI50 with NCI-H23 is 5.61 µM (inactive); with 786-0, 2.51 µM (inactive); with Hs-578T, 17.9 µM (inactive); with MOLT-4 it was 1.65 µM (inactive); in the experiment on PC-3, 1.79 µM (inactive); in the experiment with SNB-19, 12.7 µM (inactive). Also, the GI50 in the experiment with HOP-92 is 2.06 µM (inactive); with HL-60, 1.38 µM (inactive); with SR it was 1.87 µM (inactive); in the experiment on LOX IMVI, 1.58 µM (inactive); in the experiment with RPMI-8226, 0.887 µM (active); with DU-145, 8.18 µM (inactive). The 50% growth inhibitory concentration (GI50) in the experiment on HCT-15 was 2.01 µM; with EKVX, 9.59 µM (inactive); with MDA-MB-231 it was 1.62 µM (inactive); in the experiment with SK-MEL-28, 2.81 µM (inactive); with OVCAR-8, 4.73 µM (inactive); with NCI-H460 it was 4.23 µM (inactive).

On to `COc1cc(Cl)c(CC(=O)c2c[nH]c3ccccc23)cc1OC`, for which the GI50 with NCI-H23 was > 42.5 µM (inactive); in the experiment with 786-0, 13.7 µM (inactive); in the experiment with Hs-578T it was 23.6 µM (inactive); in the experiment with MOLT-4, > 100 µM (inactive); in the experiment with PC-3, > 100 µM (inactive); in the experiment on SNB-19, 13.4 µM (inactive). The GI50 in the experiment on Malme-3M was > 100 µM (inactive); in the experiment with HOP-92, 5.36 µM (inactive); in the experiment on HL-60, > 37.2 µM (inactive); with SR, > 100 µM (inactive); with LOX IMVI, > 100 µM (inactive); in the experiment on RPMI-8226, > 100 µM (inactive). The GI50 with DU-145 is > 100 µM (inactive); with HCT-15 it was over 100 µM; in the experiment with EKVX, 18.7 µM (inactive); in the experiment with MDA-MB-231, 8.95 µM (inactive); in the experiment on SK-MEL-28, > 100 µM (inactive); with OVCAR-8, 8.55 µM (inactive). Moreover, the GI50 with NCI-H460 was > 100 µM (inactive).

Regarding `O=C1c2ccccc2C2(c3ccc(Cl)cc3)N[C@@H]3CCCC[C@@H]3N12` (some centres not stated), the GI50 in the experiment on NCI-H23, in the experiment with 786-0, with Hs-578T, in the experiment with MOLT-4, in the experiment on PC-3 and with SNB-19 was > 100 µM (inactive) each time. The GI50 in the experiment on HOP-92 is > 100 µM (inactive); with HL-60 it was 50.1 µM (inactive); with SR it was > 100 µM (inactive); in the experiment with LOX IMVI it was > 100 µM (inactive); with RPMI-8226 it was > 100 µM (inactive); in the experiment on DU-145, > 100 µM (inactive). The GI50 is over 100 µM in the experiment with HCT-15; > 100 µM (inactive) in the experiment with EKVX; > 100 µM (inactive) in the experiment on MDA-MB-231; > 100 µM (inactive) in the experiment with SK-MEL-28; > 100 µM (inactive) with OVCAR-8; > 100 µM (inactive) in the experiment with NCI-H460.

As to `CCOC(=O)C(NC(=O)c1ccccc1)(N1CCN(c2cc3c(cc2F)c(=O)c(C(=O)O)cn3C2CC2)CC1)C(F)(F)F` (configuration not stated), the GI50 was 15.1 µM (inactive) in the experiment with NCI-H23; 32.4 µM (inactive) in the experiment with 786-0; 26.2 µM (inactive) in the experiment with Hs-578T; 14.1 µM (inactive) in the experiment on MOLT-4; 23.6 µM (inactive) in the experiment with PC-3; 29.2 µM (inactive) in the experiment on SNB-19. Moreover, the GI50 with Malme-3M is 20.2 µM (inactive); in the experiment on HOP-92, 19.8 µM (inactive); with HL-60 it was 14.4 µM (inactive); in the experiment on SR, 20.5 µM (inactive); in the experiment with RPMI-8226, 23.1 µM (inactive); in the experiment with DU-145, 27.5 µM (inactive). Besides, the GI50 with EKVX is 24.9 µM (inactive); in the experiment on MDA-MB-231 it was 12.9 µM (inactive); in the experiment with SK-MEL-28, 28 µM (inactive); with OVCAR-8, 31.3 µM (inactive); in the experiment with NCI-H460 it was 21 µM (inactive).

On to `C=C(C)[C@]12CC(C)C34OC(/C=C\C=C\CCCCCCCCC)(O[C@@H]1[C@@H]3[C@@H]1O[C@]1(CO)[C@@H](O)[C@]1(O)C(=O)C(C)=C[C@@H]41)O2` (some centres not stated), for which the GI50 was 14.4 µM (inactive) in the experiment on NCI-H23; 6.35 µM (inactive) in the experiment with 786-0; 0.01 µM (active) in the experiment on Hs-578T; 2.14 µM (inactive) with MOLT-4; 2 µM (inactive) in the experiment on PC-3; 16.6 µM (inactive) with SNB-19. Also, the 50% growth inhibitory concentration (GI50) in the experiment with Malme-3M is 0.535 µM (active); in the experiment with HL-60, 0.0103 µM (active); with NCI-H522 it was 14.7 µM (inactive); in the experiment on SR, 2.16 µM (inactive); in the experiment on LOX IMVI, 0.026 µM (active); with RPMI-8226, 11.9 µM (inactive). In addition, the GI50 in the experiment with DU-145 was 8.38 µM (inactive); in the experiment on HCT-15, 12.4 µM; in the experiment with EKVX, 13.4 µM (inactive); with MDA-MB-231, 0.01 µM (active); in the experiment with SK-MEL-28, 12.1 µM (inactive); in the experiment on OVCAR-8, 16.3 µM (inactive). Moreover, the GI50 in the experiment on NCI-H460 was 0.01 µM (active).

As for `CC1=CC=C2c3ccccc3C=CN2C(=O)C1`, the GI50 in the experiment on NCI-H23 was 61.9 µM (inactive); in the experiment with 786-0 it was 60.7 µM (inactive); in the experiment with Hs-578T it was 35.6 µM (inactive); in the experiment with MOLT-4 it was 25.6 µM (inactive); in the experiment with PC-3, 50 µM (inactive); in the experiment on SNB-19 it was 70.5 µM (inactive). Also, the GI50 in the experiment with Malme-3M was > 100 µM (inactive); with HL-60, 16.9 µM (inactive); with NCI-H522, 43.3 µM (inactive); in the experiment on SR it was 40.7 µM (inactive); in the experiment on LOX IMVI, 40.9 µM (inactive); in the experiment on RPMI-8226 it was 25.7 µM (inactive). For the same molecule, the GI50 with DU-145 is 52 µM (inactive); with HCT-15, 45.9 µM; in the experiment with EKVX, 23 µM (inactive); in the experiment with MDA-MB-231, 40.5 µM (inactive); with SK-MEL-28, 90.4 µM (inactive); in the experiment on OVCAR-8, 56.5 µM (inactive). In the experiment with NCI-H460, the GI50 is 53.2 µM (inactive).

On to `CN(c1ccccc1Cl)S(=O)(=O)c1ccccc1`, for which the GI50 in the experiment with NCI-H23 was 54.5 µM (inactive); with 786-0 it was > 100 µM (inactive); in the experiment with Hs-578T, 68.5 µM (inactive); in the experiment on MOLT-4, 45 µM (inactive); with PC-3, 44.3 µM (inactive); in the experiment on SNB-19, > 100 µM (inactive). In addition, the GI50 was > 100 µM (inactive) with Malme-3M; 14.6 µM (inactive) in the experiment on HL-60; > 100 µM (inactive) in the experiment on NCI-H522; 55.8 µM (inactive) with SR; > 100 µM (inactive) with LOX IMVI; > 100 µM (inactive) in the experiment on RPMI-8226. Also, the GI50 in the experiment with DU-145 was > 100 µM (inactive); with HCT-15, over 100 µM; in the experiment on EKVX, 50.4 µM (inactive); in the experiment with MDA-MB-231 it was 81.5 µM (inactive); in the experiment with SK-MEL-28 it was > 100 µM (inactive); with OVCAR-8 it was > 100 µM (inactive). For the same molecule, in the experiment on NCI-H460, the GI50 is > 100 µM (inactive).

As to `CCOC(=O)C1=C(N2CCCC2)NC(=O)CC1=O`, the GI50 with NCI-H23, in the experiment on 786-0, in the experiment on Hs-578T, in the experiment with MOLT-4, with PC-3 and in the experiment on SNB-19 was > 100 µM (inactive) throughout. For the same molecule, the GI50 in the experiment on Malme-3M, with HOP-92, in the experiment with HL-60, in the experiment on NCI-H522, in the experiment on SR and with LOX IMVI was > 100 µM (inactive) throughout. Besides, the GI50 in the experiment on RPMI-8226 is > 100 µM (inactive); in the experiment with DU-145, > 100 µM (inactive); with HCT-15, over 100 µM; with EKVX, > 100 µM (inactive); in the experiment on MDA-MB-231 it was > 100 µM (inactive); in the experiment with SK-MEL-28, > 100 µM (inactive). In addition, the GI50 with OVCAR-8 was > 100 µM (inactive).

The record behind these values is ChEMBL document CHEMBL1201862, “PubChem BioAssay data set” (2004).
